# Data taken from patent US11479539B2, “Small molecule modulators of the BTB domain of Keap1” (MedImmune Limited, priority 2017, dated 2022).
# Target: Keap1 (Homo sapiens (Human), UniProt Q14145)
# Assay: HEK293 ARE luciferase assay
# Assay type: cell-based
# Conditions: HEK-293 ARE firefly luciferase transiently transfected cells; 18 h incubation; mean of 1 to 20 individual measurements
# Method in brief: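 Keap1 inhibition read as Nrf2-driven luciferase rise: compounds dosed in 10 points up to 100 μM (0.3% DMSO) on HEK-293 ARE luciferase cells, 10,000/well, 18 h at 37 °C, then SteadyGlo luminescence. Scaled between DMSO vehicle and 30 μM tBHQ; values average 1-20 runs.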
# Keap1, sequence (Q14145 whole entry): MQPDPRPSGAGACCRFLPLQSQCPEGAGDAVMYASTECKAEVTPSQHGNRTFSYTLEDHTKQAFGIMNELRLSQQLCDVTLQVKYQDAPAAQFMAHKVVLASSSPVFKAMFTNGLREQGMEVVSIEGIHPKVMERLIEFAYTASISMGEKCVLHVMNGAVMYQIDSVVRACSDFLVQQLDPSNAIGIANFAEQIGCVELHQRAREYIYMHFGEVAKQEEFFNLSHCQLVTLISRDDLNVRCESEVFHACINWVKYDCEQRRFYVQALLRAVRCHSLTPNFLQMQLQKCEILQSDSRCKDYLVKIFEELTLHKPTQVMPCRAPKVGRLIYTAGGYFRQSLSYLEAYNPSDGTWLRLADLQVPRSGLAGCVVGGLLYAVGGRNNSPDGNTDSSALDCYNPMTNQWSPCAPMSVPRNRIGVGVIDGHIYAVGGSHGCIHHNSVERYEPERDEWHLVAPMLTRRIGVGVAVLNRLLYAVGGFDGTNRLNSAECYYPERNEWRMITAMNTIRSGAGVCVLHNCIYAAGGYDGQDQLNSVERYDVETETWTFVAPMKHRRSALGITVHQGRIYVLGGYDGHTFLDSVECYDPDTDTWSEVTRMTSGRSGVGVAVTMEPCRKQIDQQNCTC
row,Compound,EC50 [µM]
1,"COC1(c2ncc(F)cc2-c2cncc(C(F)(F)F)c2)C=C(C#N)C(=O)C(C)(C)C1 (centres unmarked) [Compound 186, 3-[5-fluoro-5′-(trifluoromethyl)[3,3′-bypyridin]-2-yl]-3-methoxy-5,5-dimethyl-6-oxocyclohex-1-ene-1-carbonitrile]",0.075
2,"COC1(c2ncc(F)cc2-c2c(C)nn(C)c2C)C=C(C#N)C(=O)C(C)(C)C1 (centres unmarked) [Compound 187, 3-[5-fluoro-3-(1,3,5-trimethyl-1H-pyrazol-4-yl)pyridin-2-yl]-3-methoxy-5,5-dimethyl-6-oxocyclohex-1-ene-1-carbonitrile]",0.077
3,"COC1(c2ncc(F)cc2-c2ccn3ncnc3c2)C=C(C#N)C(=O)C(C)(C)C1 (centres unmarked) [Compound 188, 3-[5-fluoro-3-([1,2,4]triazolo[1,5-a]pyridin-7-yl)pyridin-2-yl]-3-methoxy-5,5-dimethyl-6-oxocyclohex-1-ene-1-carbonitrile]",0.023
4,"COC1(c2ncc(F)cc2-c2c(C)nn(C)c2C)C=C(C#N)C(=O)C(C)(C)C1 (centres unmarked) [Compound 189, 3-[5-fluoro-3-(1,3,5-trimethyl-1H-pyrazol-4-yl)pyridin-2-yl]-3-methoxy-5,5-dimethyl-6-oxocyclohex-1-ene-1-carbonitrile]",1.53
5,"COC1(c2ncc(F)cc2-c2ccn3ncnc3c2)C=C(C#N)C(=O)C(C)(C)C1 (centres unmarked) [Compound 190, 3-[5-fluoro-3-([1,2,4]triazolo[1,5-a]pyridin-7-yl)pyridin-2-yl]-3-methoxy-5,5-dimethyl-6-oxocyclohex-1-ene-1-carbonitrile]",1.68
6,"COC1(c2ncc(F)cc2-c2sc(C)nc2C)C=C(C#N)C(=O)C(C)(C)C1 (centres unmarked) [Compound 191, 3-[3-(2,4-dimethyl-1,3-thiazol-5-yl)-5-fluoropyridin-2-yl]-3-methoxy-5,5-dimethyl-6-oxocyclohex-1-ene-1-carbonitrile]",0.012
7,"COC1(c2ncc(F)cc2-c2cc[nH]c(=O)c2)C=C(C#N)C(=O)C(C)(C)C1 (centres unmarked) [Compound 192, 3-(5-fluoro-2′-oxo[1′,2′-dihydro[3,4′-bipyridine]]-2-yl)-3-methoxy-5,5-dimethyl-6-oxocyclohex-1-ene-1-carbonitrile]",> 10
8,"COC1(c2ncc(F)cc2-c2cccc(=O)[nH]2)C=C(C#N)C(=O)C(C)(C)C1 (centres unmarked) [Compound 193, 3-(5′-fluoro-6-oxo[1,6-dihydro[2,3′-bipyridine]]-2′-yl)-3-methoxy-5,5-dimethyl-6-oxocyclohex-1-ene-1-carbonitrile]",> 10
9,"COC1(c2nc(C)c(-c3ccccn3)s2)C=C(C#N)C(=O)C2(CC2)C1 (centres unmarked) [Compound 194, 7-methoxy-7-[4-methyl-5-(pyridin-2-yl)-1,3-thiazol-2-yl]-4-oxospiro[2.5]oct-5-ene-5-carbonitrile]",0.203
10,"COC1(c2ncc(F)cc2-c2sc(C)nc2C)C=C(C#N)C(=O)C(C)(C)C1 (centres unmarked) [Compound 195, 3-[3-(2,4-dimethyl-1,3-thiazol-5-yl)-5-fluoropyridin-2-yl]-3-methoxy-5,5-dimethyl-6-oxocyclohex-1-ene-1-carbonitrile]",1.3
11,"COC1(c2ncc(F)cc2C(F)F)C=C(C#N)C(=O)C2(CC2)C1 (centres unmarked) [Compound 196, 7-[3-(difluoromethyl)-5-fluoropyridin-2-yl]-7-methoxy-4-oxospiro[2.5]oct-5-ene-5-carbonitrile]",0.046
12,"CO[C@]1(c2ncc(Cl)cn2)C=C(C#N)C(=O)C(C)(C)C1 [Compound 214, (3S)-3-(5-chloropyrimidin-2-yl)-3-methoxy-5,5-dimethyl-6-oxocyclohex-1-ene-1-carbonitrile]",0.02
13,"COC1(c2ccc(C)cn2)C=C(C#N)C(=O)C(C)(C)C1 (centres unmarked) [Compound 239, 3-methoxy-5,5-dimethyl-3-(5-methylpyridin-2-yl)-6-oxocyclohex-1-ene-1-carbonitrile]",0.05
14,"COC1(c2ccc(F)cn2)C=C(C#N)C(=O)C2(CCCC2)C1 (centres unmarked) [Compound 240, 9-(5-fluropyridin-2-yl)-9-methoxy-6-oxospiro[4.5]dec-7-ene-7-carbonitrile]",0.838
